# Laboratory results published in patent US11400081B2, “Compounds” (The University of Sheffield, priority 2017, dated 2022).
# Target: T1, AM2 receptor (CALCRL+RAMP3) (Homo sapiens, UniProt O60896+Q16602)
# T1 construct: host or cells: 1321N1
# Experiment: AM2 receptor inhibition, LANCE TR-FRET cAMP agonist-antagonist competition assay
# Assay type: cell-based
# Conditions: inhibition of AM induced cAMP activation; 1321N1 cells transfected with CALCRL+RAMP3; read-out: AM2 pIC50 (converted)
# Description: Compounds were assessed for their ability to inhibit ligand-induced elevations of cAMP, using the Perkin Elmer LANCE cAMP assay using commercially-available cells expressing a specific receptor of interest using the following general procedure:
# Compounds were prepared in dimethyl sulfoxide (DMSO—99.9% pure) (Sigma Aldrich, Cat #: D4540) added to powder stocks to produce a 20 mM solution (100% DMSO) that was sonicated at 37° C. for 10 minutes to fully dissolve the compounds. The 20 mM stocks were diluted further in DMSO to produce a 2 mM solution that was sonicated at 37° C. for 10 minutes. 2 mM stocks were dissolved in assay/stimulation buffer to produce a 400 μM solution that was sonicated at 37° C. for 10 minutes for all cAMP assays. All stocks were stored at −20° C. Then serial dilution (Dilution factor 10) was performed to achieve the desire experimental concentrations.
# Competition assays were performed according to the manufactures instructions using LANCE® TR-FRET cAMP assay kit (Perkin Elmer, Cat #: AD0264). Serial dilutions (3 μl/well) of the molecules were plated in a 384-well OptiPlate (Perkin Elmer, Cat #: 6007299) in duplicates. Appropriate controls (100% stimulation: Forskolin and 0% stimulation: Vehicle control) (6 μl/well) were included in each plate for data normalization. Following the compound addition, 6 μl of G-protein coupled receptor overexpressing cells/Alexa Fluor antibody solution (1:100 dilution) was added in each well at a desired density of 2500 cells/well. The overexpressing cell lines were purchased from DiscoveRx, Birmingham, UK. After spinning the plate at 1000 rpm for 1 minute and vortexing briefly, the cells were pre-incubated with the compounds for 30 minutes at room temperature (covered). Then 3 μl of the equivalent peptide ligand (EC50 dose) was added to all the wells except vehicle and forskolin controls. The plate were then spun down at 1000 rpm for 1 minute and once finished they were vortexed briefly and covered. Cells were stimulated in the presence of the ligands for 15 minutes at room temperature. After stimulation 12 μl of detection mix (Europium-Chelate streptavidin/biotinylated cAMP tracer solution) was added to all wells and incubated for 60 minutes at room temperature. The plate was then read on the Enspire multimode Plate reader (Perkin Elmer), at; 320/340 nm excitation and 615/665 nm emission was recorded.
# • 28 mL Hank's Balanced salt solution (+MgCl2, +CaCl2)—(Thermo Fisher Cat #:14170112) • 150 μl HEPES (1M)—(Thermo Fisher Cat #:15630080) • 400 μl Stabilizer (DTPA) Purified BSA (7.5%)—(Perkin Elmer, Cat #: CR84-100) • 60 μl IBMX (250 mM)—(Sigma Aldrich, Cat #: 15879) Specific cAMP/Agonist-Antagonist Competition Assays
# The ability of a compound to inhibit the AM induced cAMP activation in AM2 receptor-expressing cells (1321N1 cells transfected with CALCRL+RAMP3, sourced from DiscoverX catalogue number 95-0169C6) was assessed using the protocol above.
# T1 sequence (Q16602 23-461): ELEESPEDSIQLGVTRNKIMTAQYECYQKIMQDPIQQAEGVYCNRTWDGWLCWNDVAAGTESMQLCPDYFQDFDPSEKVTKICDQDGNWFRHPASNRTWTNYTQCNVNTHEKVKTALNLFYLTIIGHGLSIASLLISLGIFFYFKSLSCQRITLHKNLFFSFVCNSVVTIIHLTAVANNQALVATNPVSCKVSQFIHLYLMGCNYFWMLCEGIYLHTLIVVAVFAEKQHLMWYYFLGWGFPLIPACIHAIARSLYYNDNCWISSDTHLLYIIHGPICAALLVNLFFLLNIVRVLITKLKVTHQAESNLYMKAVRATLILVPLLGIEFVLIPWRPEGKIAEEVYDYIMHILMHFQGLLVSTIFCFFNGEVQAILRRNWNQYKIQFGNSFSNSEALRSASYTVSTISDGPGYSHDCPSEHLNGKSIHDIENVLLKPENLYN
# T1 sequence (O60896 24-148): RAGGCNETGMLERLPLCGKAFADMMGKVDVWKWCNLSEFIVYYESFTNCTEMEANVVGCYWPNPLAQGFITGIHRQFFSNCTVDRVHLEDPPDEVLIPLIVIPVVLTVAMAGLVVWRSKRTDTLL
row,IC50,SMILES
1,33.1 nM,"COCCNCc1ccccc1CN(CC(=O)Nc1ccc2c(c1)CC1(C2)C(=O)Nc2ncccc21)C(=O)C(C)(C)C (stereo not shown) [Example 18, N-(2-(((2-Methoxyethyl)amino)methyl)benzyl)-N-(2-oxo-2-((2′-oxo-1,1′,2′,3-tetrahydrospiro[indene-2,3′-pyrrolo[2,3-b]pyridin]-5-yl)amino)ethyl)pivalamide]"
2,24 nM,"CNCc1ccccc1CN(CC(=O)Nc1cc2c(cn1)CC1(C2)C(=O)Nc2ncccc21)C(=O)C(C)(C)C (stereo not shown) [Example 103, N-(2-((Methylamino)methyl)benzyl)-N-(2-oxo-2-((2′-oxo-1′,2′,5,7-tetrahydrospiro[cyclopenta[c]pyridine-6,3′-pyrrolo[2,3-b]pyridin]-3-yl)amino)ethyl)pivalamide]"
3,18.2 nM,"CNCc1ccccc1CN(C(=O)C(C)(C)C)[C@H](C)C(=O)Nc1ccc2c(c1)CC1(C2)C(=O)Nc2ncccc21 (stereo partly drawn) [Example 35, N-(2-((Methylamino)methyl)benzyl)-N-((2R)-1-oxo-1-((2′-oxo-1,1′,2′,3-tetrahydrospiro[indene-2,3′-pyrrolo[2,3-b]pyridin]-5-yl)amino)propan-2-yl)pivalamide]"
4,85.1 nM,"CNCc1ccccc1CN(CC(=O)Nc1ccc2c(c1)CC1(C2)C(=O)Nc2ncccc21)C(=O)C1CCCCO1 (stereo not shown) [Example 64, N-(2-((Methylamino)methyl)benzyl)-N-(2-oxo-2-((2′-oxo-1,1′,2′,3-tetrahydrospiro[indene-2,3′-pyrrolo[2,3-b]pyridin]-5-yl)amino)ethyl)tetrahydro-2H-pyran-2-carboxamide]"
5,50.1 nM,"CNCc1ccccc1CN(CC(=O)Nc1cnc2c(c1)CC1(C2)C(=O)Nc2ncccc21)C(=O)C(C)(C)C (stereo not shown) [Example 105, N-(2-((methylamino)methyl)benzyl)-N-(2-oxo-2-((2′-oxo-1′,2′,5,7-tetrahydrospiro[cyclopenta[b]pyridine-6,3′-pyrrolo[2,3-b]pyridin]-3-yl)amino)ethyl)pivalamide 2,2,2-trifluoroacetate]"
6,513 nM,"CC(C)(C)C(=O)N(CC(=O)Nc1ccc2c(c1)CC1(C2)C(=O)Nc2ncccc21)Cc1ccccc1CNCC(F)(F)F (stereo not shown) [Example 6, N-(2-Oxo-2-((2′-oxo-1,1′,2′,3-tetrahydrospiro[indene-2,3′-pyrrolo[2,3-b]pyridine]-5-yl)amino)ethyl)-N-(2-(((2,2,2-trifluoroethyl)amino)methyl)benzyl)pivalamide]"
7,501 nM,"CNCc1ccccc1CN(CC(=O)Nc1ccc2c(c1)CC1(C2)C(=O)Nc2ncccc21)C(=O)N1CCC2(CCNCC2)C1 (stereo not shown) [Example 90, N-(2-((Methylamino)methyl)benzyl)-N-(2-oxo-2-((2′-oxo-1,1′,2′,3-tetrahydrospiro[indene-2,3′-pyrrolo[2,3-b]pyridin]-5-yl)amino)ethyl)-2,8-diazaspiro[4.5]decane-2-carboxamide]"
8,42.7 nM,"CNCc1ccccc1CN(CC(=O)Nc1ccc2c(c1)CC1(C2)C(=O)Nc2ncccc21)C(=O)c1ncsc1C (stereo not shown) [Example 62, 5-Methyl-N-(2-((methylamino)methyl)benzyl)-N-(2-oxo-2-((2′-oxo-1,1′,2′,3-tetrahydrospiro[indene-2,3′-pyrrolo[2,3-b]pyridin]-5-yl)amino)ethyl)thiazole-4-carboxamide]"
9,15.1 nM,"CNCc1ccccc1CN(CC(=O)Nc1ccc2c(c1)CC1(C2)C(=O)Nc2ncccc21)C(=O)C1(C)COC1 (stereo not shown) [Example 58, 3-Methyl-N-(2-((methylamino)methyl)benzyl)-N-(2-oxo-2-((2′-oxo-1,1′,2′,3-tetrahydrospiro[indene-2,3′-pyrrolo[2,3-b]pyridin]-5-yl)amino)ethyl)oxetane-3-carboxamide]"
10,2.45 nM,"CNCc1ccccc1CN(CC(=O)Nc1ccc2c(c1)CC1(C2)C(=O)Nc2ncccc21)C(=O)C1CCN(C(=O)N(C)C)CC1 (stereo not shown) [Example 71, N1,N1-dimethyl-N4-(2-((methylamino)methyl)benzyl)-N4-(2-oxo-2-((2′-oxo-1,1′,2′,3-tetrahydrospiro[indene-2,3′-pyrrolo[2,3-b]pyridin]-5-yl)amino)ethyl)piperidine-1,4-dicarboxamide 2,2,2-trifluoroacetate]"
11,398 nM,"CC(C)(C)C(=O)N(CC(=O)Nc1ccc2c(c1)CC1(C2)C(=O)Nc2ncccc21)Cc1ccccc1CN1CC(F)(F)C1 (stereo not shown) [Example 11, N-(2-((3,3-Difluoroazetidin-1-yl)methyl)benzyl)-N-(2-oxo-2-((2′-oxo-1,1′,2′,3-tetrahydrospiro[indene-2,3′-pyrrolo[2,3-b]pyridin]-5-yl)amino)ethyl)pivalamide]"
12,17.8 nM,"CNCc1ccccc1CN(CC(=O)Nc1ccc2c(c1)C[C@@]1(C2)C(=O)Nc2ncccc21)C(=O)C1(C(F)(F)F)CCCC1 [Example 94, N-[[2-(methylaminomethyl)phenyl]methyl]-N-[2-oxo-2-[[(3R)-2-oxospiro[1H-pyrrolo[2,3-b]pyridine-3,2′-indane]-5′-yl]amino]ethyl]-1-(trifluoromethyl)cyclopentanecarboxamide 2,2,2-trifluoroacetate]"
13,15.5 nM,"CNCc1ccccc1CN(CC(=O)Nc1ccc2c(c1)CC1(C2)C(=O)Nc2ncccc21)C(=O)C1CCN(C(C)=O)C1 (stereo not shown) [Example 74, 1-acetyl-N-(2-((methylamino)methyl)benzyl)-N-(2-oxo-2-((2′-oxo-1,1′,2′,3-tetrahydrospiro[indene-2,3′-pyrrolo[2,3-b]pyridin]-5-yl)amino)ethyl)pyrrolidine-3-carboxamide 2,2,2-trifluoroacetate]"
14,60.3 nM,"CNCc1ccccc1CN(CC(=O)Nc1ccc2c(c1)C[C@@]1(C2)C(=O)Nc2ncccc21)C(=O)C(C)(C)CC(F)(F)F [Example 97, 4,4,4-Trifluoro-2,2-dimethyl-N-[[2-(methylaminomethyl)phenyl]methyl]-N-[2-oxo-2-[[(3R)-2-oxospiro[1H-pyrrolo[2,3-b]pyridine-3,2′-indane]-5′-yl]amino]ethyl]butanamide 2,2,2-trifluoroacetate]"
15,9.33 nM,"CNCc1ccccc1CN(CC(=O)Nc1ccc2c(c1)CC1(C2)C(=O)Nc2ncccc21)C(=O)C(C)(C)OC (stereo not shown) [Example 59, 2-Methoxy-2-methyl-N-(2-((methylamino)methyl)benzyl)-N-(2-oxo-2-((2′-oxo-1,1′,2′,3-tetrahydrospiro[indene-2,3′-pyrrolo[2,3-b]pyridin]-5-yl)amino)ethyl)propanamide]"
16,89.1 nM,"CC(C)NCc1ccccc1CN(CC(=O)Nc1ccc2c(c1)CC1(C2)C(=O)Nc2ncccc21)C(=O)C(C)(C)C (stereo not shown) [Example 19, N-(2-((Isopropylamino)methyl)benzyl)-N-(2-oxo-2-((2′-oxo-1,1′,2′,3-tetrahydrospiro[indene-2,3′-pyrrolo[2,3-b]pyridin]-5-yl)amino)ethyl)pivalamide]"
17,30.2 nM,"CCNCc1ccccc1CN(CC(=O)Nc1ccc2c(c1)CC1(C2)C(=O)Nc2ncccc21)C(=O)C(C)(C)C (stereo not shown) [Example 27, N-(2-((Ethylamino)methyl)benzyl)-N-(2-oxo-2-((2′-oxo-1,1′,2′,3-tetrahydrospiro[indene-2,3′-pyrrolo[2,3-b]pyridin]-5-yl)amino)ethyl)pivalamide]"
18,22.4 nM,"CNCc1ccccc1CN(CC(=O)Nc1ccc2c(c1)CC1(C2)C(=O)Nc2ncccc21)C(=O)C1CCN(C(C)=O)CC1 (stereo not shown) [Example 79, 1-Acetyl-N-(2-((methylamino)methyl)benzyl)-N-(2-oxo-2-((2′-oxo-1,1′,2′,3-tetrahydrospiro[indene-2,3′-pyrrolo[2,3-b]pyridin]-5-yl)amino)ethyl)piperidine-4-carboxamide]"
19,53.7 nM,"CNCc1ccccc1CN(CC(=O)Nc1ccc2c(c1)CC1(C2)C(=O)Nc2ncccc21)C(=O)C1CCCO1 (stereo not shown) [Example 63, N-(2-((Methylamino)methyl)benzyl)-N-(2-oxo-2-((2′-oxo-1,1′,2′,3-tetrahydrospiro[indene-2,3′-pyrrolo[2,3-b]pyridin]-5-yl)amino)ethyl)tetrahydrofuran-2-carboxamide]"
